Source: PubChem BioAssay AID330 (DTP/NCI, 2004)
Inconclusive results and toxic doses are left out. The calls were made as follows: active = survival T/C of 150% or more; inactive = T/C below 125% in these data.

Tested on: P388 leukemia ip, CD2F1 mice, survival T/C
Assay: NCI In Vivo Anticancer Drug Screen. Data for tumor model P388 Leukemia (intraperitoneal) in CD2F1 (CDF1) mice
Details: endpoint: median survival time, higher = longer survival
In short: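 Mice carrying the transplanted tumor received test compound or vehicle. Survival was recorded in each group, and the value is the treated-group measurement divided by that of the vehicle-treated control group.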

[1] = dose: 60.0 mg/kg/injection, schedule: Q01DX005 (ip), vehicle: saline with Tween-80
[2] = dose: 120.0 mg/kg/injection, schedule: Q01DX005 (ip), vehicle: saline with Tween-80
[3] = dose: 240.0 mg/kg/injection, schedule: Q01DX005 (ip), vehicle: saline with Tween-80

Measured: T/C

O=[N+]([O-])c1ccc(SN2CCCCC2CC2CCCCC2)c([N+](=O)[O-])c1 (stereo not given)
inactive: dose: 50.0 mg/kg/injection, schedule: Q01DX005 (ip), vehicle: Klucel (hydroxypropylcellulose) (HPC) 105 % of control | dose: 100.0 mg/kg/injection, schedule: Q01DX005 (ip), vehicle: Klucel (hydroxypropylcellulose) (HPC) 98 % of control | dose: 200.0 mg/kg/injection, schedule: Q01DX005 (ip), vehicle: Klucel (hydroxypropylcellulose) (HPC) 96 % of control

N#CC1CSCC1=O (stereo not given)
inactive: dose: 25.0 mg/kg/injection, schedule: Q01DX009 (ip), vehicle: saline with Tween-80 103 % of control | dose: 50.0 mg/kg/injection, schedule: Q01DX009 (ip), vehicle: saline with Tween-80 100 % of control | dose: 100.0 mg/kg/injection, schedule: Q01DX009 (ip), vehicle: saline with Tween-80 99 % of control

COc1ccc(-c2cn3c([nH]c(=O)c4ccccc43)c2C#N)cc1
inactive: dose: 15.0 mg/kg/injection, schedule: Q01DX005 (ip), vehicle: saline with Tween-80 86 % of control | dose: 30.0 mg/kg/injection, schedule: Q01DX005 (ip), vehicle: saline with Tween-80 88 % of control | [1] 86 % of control

CCCCCC1SCC(=O)N1c1nncs1 (stereo not given)
inactive: [1] 106 % of control | [2] 103 % of control | [3] 113 % of control

C1CCN(CCC[Si]23OCCN(CCO2)CCO3)C1
inactive: dose: 50.0 mg/kg/injection, schedule: Q01DX005 (ip), vehicle: saline with Tween-80 108 % of control | dose: 100.0 mg/kg/injection, schedule: Q01DX005 (ip), vehicle: saline with Tween-80 108 % of control | dose: 200.0 mg/kg/injection, schedule: Q01DX005 (ip), vehicle: saline with Tween-80 109 % of control

CCOC(CCC1(C)C(=O)CCC1=O)(OCC)OCC
inactive: [1] 106 % of control | [2] 106 % of control | [3] 99 % of control

BrC/C(=N\N=C(/CBr)c1ccccc1)c1ccccc1
inactive: dose: 50.0 mg/kg/injection, schedule: Q01DX009 (ip), vehicle: Klucel (hydroxypropylcellulose) (HPC) 103 % of control | dose: 100.0 mg/kg/injection, schedule: Q01DX009 (ip), vehicle: Klucel (hydroxypropylcellulose) (HPC) 112 % of control | dose: 200.0 mg/kg/injection, schedule: Q01DX009 (ip), vehicle: Klucel (hydroxypropylcellulose) (HPC) 96 % of control

COc1cc(C2c3cc4c(cc3OC(C)(O)C2C(C)=O)OCO4)cc(OC)c1OC (stereo not given)
inactive: [1] 87 % of control | [2] 94 % of control | [3] 100 % of control

COc1ccc(CCNC(=O)CC2CCN(C)CC2)cc1OC
inactive: dose: 100.0 mg/kg/injection, schedule: Q04DX003 (ip), vehicle: saline with Tween-80 101 % of control | dose: 200.0 mg/kg/injection, schedule: Q04DX003 (ip), vehicle: saline with Tween-80 100 % of control

CN(C)C1CS(=O)(=O)OC2=C1CCSc1ccccc12 (stereo not given)
inactive: [1] 102 % of control | [2] 99 % of control | [3] 100 % of control

N#CC12CCC(CC1)CC2Cl (stereo not given)
inactive: dose: 0.5 mg/kg/injection, schedule: Q01DX009 (ip), vehicle: saline with Tween-80 108 % of control | dose: 1.0 mg/kg/injection, schedule: Q01DX009 (ip), vehicle: saline with Tween-80 100 % of control | dose: 2.0 mg/kg/injection, schedule: Q01DX009 (ip), vehicle: saline with Tween-80 106 % of control | dose: 4.0 mg/kg/injection, schedule: Q01DX009 (ip), vehicle: saline with Tween-80 113 % of control

CC(C)(C)C(=O)NC(Cc1cnc[nH]1)C(=O)O (stereo not given)
inactive: dose: 50.0 mg/kg/injection, schedule: Q01DX009 (ip), vehicle: saline 100 % of control | dose: 100.0 mg/kg/injection, schedule: Q01DX009 (ip), vehicle: saline 106 % of control | dose: 200.0 mg/kg/injection, schedule: Q01DX009 (ip), vehicle: saline 108 % of control

CC[P+](c1ccccc1)(c1ccccc1)c1ccccc1
inactive: dose: 0.62 mg/kg/injection, schedule: Q01DX009 (ip), vehicle: saline with Tween-80 111 % of control | dose: 1.25 mg/kg/injection, schedule: Q01DX009 (ip), vehicle: saline with Tween-80 104 % of control | dose: 2.5 mg/kg/injection, schedule: Q01DX009 (ip), vehicle: saline with Tween-80 112 % of control | dose: 5.0 mg/kg/injection, schedule: Q01DX009 (ip), vehicle: saline with Tween-80 119 % of control

COC(=O)[C@H]1C[C@@H](N)[C@H](O)[C@@H]1O
inactive: dose: 60.0 mg/kg/injection, schedule: Q01DX005 (ip), vehicle: saline 102 % of control | dose: 120.0 mg/kg/injection, schedule: Q01DX005 (ip), vehicle: saline 101 % of control | dose: 240.0 mg/kg/injection, schedule: Q01DX005 (ip), vehicle: saline 100 % of control

CC(=O)[O-].O=C(N/N=C/c1ccccc1[O-])c1ccccc1.[Zn+2]
inactive: [1] 95 % of control | [2] 106 % of control
